Results reported in paper PMC8274595, “Mechanism through Which Retrocyclin Targets Flavivirus Multiplication” (Journal of Virology, 2021).
Where two headings read alike, the source gives them in different places. Where no end group is shown, it is not given here.

Tests used:
[1] = system: herpes simplex virus 1/2 (HSV-1/2) glycoprotein; conditions: cited from earlier work
[2] = system: JEV DE mutant
[3] = system: ZIKV MR766; assay: Plaque assay, ZIKV MR766 virus production; type: cell-based, Zika virus (ZIKV); conditions: additional cell line U251 used, supernatant 71 h postinfection
[4] = molecular target: T1, WT DIII (Japanese encephalitis virus, UniProt P27395); assay: Binding affinity, biolayer interferometry, WT DIII; design: species or system Japanese encephalitis virus (JEV); conditions: Octet QK, DIII immobilized, RC-101 200, 100, 50 nM, 1:1 binding model
T1 construct: The WT DIII expression vector was constructed using pET-22b(+) and preserved in our laboratory; pET-22b(+) normally gives a C-terminal His6); made in house; host or cells: E. coli BL21(DE3), pET-22b(+)

[5] = system: ZIKV replicon; assay: ZIKV replicon luciferase assay; type: cell-based, Zika virus (ZIKV); conditions: BHK-21 cells, three independent experiments
[6] = molecular target: T2, DE mutant DIII (Japanese encephalitis virus, UniProt P27395, N661A/S658A/S659A/T657A); assay: Binding affinity, biolayer interferometry, DE mutant DIII; design: species or system Japanese encephalitis virus (JEV); conditions: relative to WT DIII
T2 construct: DE loop mutant DIII (B), and bovine serum albumin (BSA) (C) were immobilized onto biosensors; pET-22b(+) normally gives a C-terminal His6); made in house

[7] = system: JEV T410A variant
[8] = system: JEV NS3; type: cell-based, Japanese encephalitis virus (JEV); conditions: BHK-21 cells
[9] = system: JEV AT31; assay: Viral titer reduction (plaque) assay, JEV in BHK-21 cells; type: cell-based, Japanese encephalitis virus (JEV); conditions: MOI 0.1, six independent experiments
[10] = system: Vero cells; conditions: up to 100 μM, 72 h, CCK-8 assay
[11] = system: influenza virus hemagglutinin; conditions: cited from earlier work
[12] = molecular target: T3, ZIKV NS2B-NS3pro (Zika virus, UniProt A0A024B7W1); assay: Proteolytic activity of NS2B-NS3 protease; type: biochemical
T3 construct: the NS2B fragments were amplified by PCR; made in house; host or cells: E. coli BL21(DE3), pET28a

[13] = system: JEV AT31; assay: Viral titer reduction (plaque) assay, JEV in U251 cells; type: cell-based, Japanese encephalitis virus (JEV); conditions: MOI 0.1, six independent experiments
[14] = system: JEV H144A variant; type: cell-based, Japanese encephalitis virus (JEV); conditions: coadministration, BHK-21 cells, Western blot and plaque assay
[15] = system: JEV H319A variant
[16] = system: JEV N154A variant; type: cell-based, Japanese encephalitis virus (JEV); conditions: coadministration, BHK-21 cells, Western blot and plaque assay
[17] = system: HIV gp120; conditions: cited from earlier work
[18] = system: ZIKV PRVABC 59; assay: Plaque assay, ZIKV PRVABC 59 virus production; type: cell-based, Zika virus (ZIKV); conditions: 100 μM, additional cell line U251 used, supernatant 47 h postinfection
[19] = system: MR766 strain; assay: Time-of-addition assay, ZIKV MR766 posttreatment; type: cell-based, Zika virus (ZIKV); conditions: Vero cells, RC-101 40 μM added 1 h postinfection for 71 h, MOI 0.1, plaque assay
[20] = system: ZIKV; assay: Time-of-addition assay, ZIKV (PRVABC 59 and MR766); type: cell-based, Zika virus (ZIKV)
[21] = system: JEV Q258A variant; type: cell-based, Japanese encephalitis virus (JEV); conditions: coadministration, BHK-21 cells, Western blot and plaque assay
[22] = system: JEV; type: cell-based, Japanese encephalitis virus (JEV); conditions: 50 μM RC-101, coadministration, BHK-21 cells
[23] = system: DENV NS2B-NS3 protease; conditions: cited from earlier work
[24] = system: DENV-2; conditions: cited from earlier work

In the case of `CC[C@H](C)[C@@H]1NC(=O)CNC(=O)[C@H](CCCCN)NC(=O)CNC(=O)[C@@H]2CSSC[C@H](NC1=O)C(=O)N[C@@H](CCCNC(=N)N)C(=O)N[C@H]1CSSC[C@H](NC(=O)[C@H](CCCNC(=N)N)NC(=O)[C@@H]3CSSC[C@H](NC(=O)[C@H]([C@@H](C)CC)NC1=O)C(=O)NCC(=O)N[C@@H](CCCNC(=N)N)C(=O)NCC(=O)N[C@@H]([C@@H](C)CC)C(=O)N3)C(=O)N[C@@H]([C@@H](C)CC)C(=O)N2` [RC-101, retrocyclin-101], the “binding affinity to HSV-1/2 glycoprotein” value [1] is listed as “high binding affinity”, the “resistance of mutant virus to RC-101” value [2] is listed as “robust resistance to RC-101 in all assays” and the virus production reduction ([3]; 12.5 μM) is listed as “approximately 1 log unit”. The virus production reduction ([3]; 100 μM) was “approximately 7 log units”, the “kinetic dissociation (Kd)” value [4] was 0.000118 s⁻¹ and the “initial translation of replicon RNA (luciferase activity)” value ([5]; 2 h postelectroporation) was “little effect”. The “luciferase signal (replication)” value ([5]; 48 h postelectroporation) was “appreciable reduction”, the “decrease of binding affinity, DE mutant versus WT DIII” value [6] was 1 order of magnitude and the “resistance of mutant virus to RC-101” value [7] was “robust resistance to RC-101 in all assays”. For the same compound, the “expression of JEV NS3” value ([8]; JEV AT31 MOI 0.1, 1 h preinfection RC-101, lysates 23 h postinfection) was “inhibited in a dose-dependent manner”, the “unprocessed polyprotein precursor (>180 kDa) expression” value ([8]; JEV AT31 MOI 0.1, RC-101 3.125 μM versus 0.78125 μM, 23 h postinfection) was “significantly higher” and the “unprocessed polyprotein precursor (>180 kDa) presence” value ([8]; JEV AT31 MOI 0.1, RC-101 0.78125 and 3.125 μM, 23 h postinfection) was “present”. For the same compound, the “unprocessed polyprotein precursor (>180 kDa) presence” value ([8]; JEV AT31 MOI 0.1, RC-101 12.5 and 50 μM, 23 h postinfection) was “decreased”, the “inhibition of JEV infection (viral titer)” value [9] was “robustly inhibited JEV infection” and the “cytotoxicity (cell viability)” value [10] was “marginal response even at 100 μM”. For the same compound, the “binding affinity to influenza virus hemagglutinin” value [11] was “high binding affinity”, the IC50 [12] was 7.2 µM and the “inhibition of JEV infection (viral titer)” value [13] was “robustly inhibited JEV infection”. For the same compound, the “inhibition of infection by mutant virus” value [14] was “inhibited infections”, the “resistance of mutant virus to RC-101” value [15] was “resistance to RC-101 at the protein level and in the low-multiplication of infection (MOI) assay” and the “inhibition of infection by mutant virus” value [16] was “inhibited infections”. The “binding affinity to HIV gp120” value [17] was “high binding affinity”, the “virus production (plaques)” value [18] was “few plaques were found” and the “inhibition of infection, posttreatment” value [19] was “inhibited MR766 strain infection”. For the same compound, the “approximate IC98 against ZIKV” value ([20]; IC98 from dose-response against ZIKV (Fig. 1)) was ~50 µM, the “suppression of viral titers, pretreatment” value ([20]; Vero cells, RC-101 40 μM for 1 h before infection (-1 to 0 h), ZIKV MOI 0.1, plaque assay) was “no suppression of viral titers was observed” and the “inhibitory effect, coadministration” value ([20]; Vero cells, RC-101 40 μM with ZIKV MOI 0.1, 0 to 1 h, plaque assay) was “significant inhibitory effects”. The “suppression of viral titers, virucidal treatment” value ([20]; ZIKV (MOI 2.5) incubated with RC-101 40 μM at 37°C for 1 h, diluted 25-fold to infect Vero cells 1 h, plaque assay) was “no suppression of viral titers was observed”, the “sensitivity of mutant virus to RC-101” value [21] was “likely had increased sensitivity” and the “prM band (Western blot)” value ([22]; MOI 0.1, 24 h postinfection) was “hardly detectable”. For the same compound, the viral titers decrease ([22]; plaque assay) was “approximately 3 log units”.

In the case of “GICRCICGRGICRCICGR (also: bicyclic or more (positions not given here)) [RC-1]”, the “inhibition of DENV NS2B-NS3 protease” value [23] is listed as “reported to inhibit DENV NS2B-NS3 protease” and the “inhibition of DENV-2 replication” value [24] is listed as “inhibit DENV-2 replication”.
